Like-named read-outs stand apart in the source and are kept apart here.
Key:
Format in all cases: cell-based, HCV
[1] = tested on: genotype 1b Con1 replicon; assay: microbe, parasite or virus in culture
Description: (§1) Evaluation of cell-based anti-HCV activity: Antiviral potency (EC50) was determined using a Renilla luciferase (RLuc)-based HCV replicon reporter assay. […] To perform the assay for genotype 2a (with M31 present in NS5A) or 2b, NS5A chimeric genotype 2a JFH-1 replicons that encodes a RLuc-Neo reporter and either genotype 2a J6 strain NS5A gene or genotype 2b MD2b-1 strain NS5A gene (both with M31 present) respectively, were either transiently transfected (t) into Huh-Lunet cells or were established as stably replicating replicon cells (s) is provided. Either cells were dispensed into 384-well plates for EC50 assays. To perform the assay for genotype 3 and 4, NS5A chimeric genotype 1b Con1 replicons that encodes a Pi-RLuc reporter and either genotype 3a S52 strain NS5A gene or genotype 4a ED43 strain NS5A gene respectively, were transiently transfected (t) into Huh-Lunet cells, which were subsequently dispensed into 384-well plates. Compounds were dissolved in DMSO at a concentration of 10 mM and diluted in DMSO either manually or using an automated pipeting instrument. Serially 3-fold diluted compounds were either manually mixed with cell culture media and added to the seeded cells or directly added to the cells using an automated instrument. […] 72 hours later, cells were lysed and Renilla luciferase activity quantified as recommended by the manufacturer (Promega-Madison, Wis.). Non-linear regression was performed to calculate EC50 values.

[2] = tested on: genotype 2a JFH-1 replicon (L31 present in NS5A); assay: microbe, parasite or virus in culture; conditions: genotype 2a JFH replicon, read-out: 2a JFH
Description: as §1

[3] = tested on: genotype 2b MD2b-1 strain NS5A gene (M31 present); assay: microbe, parasite or virus in culture
Description: as §1

[4] = tested on: genotype 2a J6 strain NS5A gene (M31 present); assay: Replicon assay, NS5A chimeric 2a JFH-1 replicon with 2a J6 NS5A, transient (t) or stable (s), Huh-Lunet cells
Description: as §1

[5] = tested on: genotype 3a S52 strain NS5A gene; assay: Replicon assay, NS5A chimeric 1b Con1 replicon with 3a NS5A, transiently transfected Huh-Lunet cells; conditions: genotype 3a, read-out: 3a
Description: as §1

[6] = tested on: genotype 4a ED43 strain NS5A gene; assay: Replicon assay, NS5A chimeric 1b Con1 replicon with 4a NS5A, transiently transfected Huh-Lunet cells
Description: as §1, with “[…],” for “were transiently transfected (t) into Huh-Lunet cells,”

Q30R in genotype 1a NS5A = assay: Antiviral potency against resistance mutant, 1a Pi-Rluc replicon in Huh-7-derived cured-51 cells; conditions: genotype 1a Q30R resistance mutant, read-out: 1a Q30R
Description: as §1
To determine the antiviral potency (EC50) against resistance mutants, resistance mutations, including M28T, Q30R, Q30H, L31M, and Y93C in genotype 1a NS5A and Y93H in genotype 1b NS5A, were introduced individually into either 1a Pi-Rluc or 1b Pi-Rluc replicons by site directed mutagenesis. Replicon RNA of each resistant mutant was transiently transfected into Huh-7-derived cured-51 cells and antiviral potency was determined on these transfected cells as described above.

[7] = genotype 2b, EC50 range class, transiently transfected cells (t), if unavailable stably replicating cells (s), read-out: 2b
[8] = stably replicating cells (s), read-out: 2b (s)
[9] = transiently transfected cells (t), read-out: 2b (t)
[10] = genotype 2a J6, EC50 range class, transiently transfected cells (t), if unavailable stably replicating cells (s), read-out: 2a J6
[11] = stably replicating cells (s), read-out: 2a J6 (s)
[12] = transiently transfected cells (t), read-out: 2a J6 (t)
[13] = genotype 4a, EC50 range class, transiently transfected cells (t), if unavailable stably replicating cells (s), read-out: 4a
[14] = stably replicating cells (s), read-out: 4a (s)
[15] = transiently transfected cells (t), read-out: 4a (t)
[16] = Hepatitis C virus, read-out: 1b (nM)

Compound	EC50 ([1]; read-out: 1b) [nM]	EC50 ([2]; EC50 range class) [nM]	EC50 [2] [nM]	EC50 [3, 7] [nM]	EC50 [3, 8] [nM]	EC50 [3, 9] [nM]	EC50 [4, 10] [nM]	EC50 [4, 11] [nM]	EC50 [4, 12] [nM]	EC50 ([5]; EC50 range class) [nM]	EC50 [5] [nM]	EC50 [6, 13] [nM]	EC50 [6, 14] [nM]	EC50 [6, 15] [nM]	EC50 (Q30R in genotype 1a NS5A; EC50 range class) [nM]	EC50 (Q30R in genotype 1a NS5A) [nM]	EC50 [1, 16] [nM]
COC(=O)N[C@H](C(=O)N1CCC[C@H]1c1ncc(-c2ccc3c(c2)COc2cc4c(cc2-3)CCc2[nH]c([C@@H]3CCCN3C(=O)[C@@H](NC(=O)OC)C(C)C)nc2-4)[nH]1)C(C)C [Example ME]	0.049	< 1	0.012	< 1	0.701	0.198	1 to 4.99	16.1	3.43	< 1	0.015	< 1	0.029	0.016	1 to 44	2.51	
COC[C@@H]1C[C@@H](c2nc3ccc4cc5c(cc4c3[nH]2)OCc2cc(-c3cnc([C@@H]4CCCN4C(=O)[C@@H](NC(=O)OC)C(C)C)[nH]3)ccc2-5)N(C(=O)[C@H](NC(=O)OC)c2ccccc2)C1 [Example MQ, methyl{(1R)-2-[(2S,4R)-2-(9-{2-[(2S)-1-{(2S)-2-[(methoxycarbonyl)amino]-3-methylbutanoyl}pyrrolidin-2-yl)-1H-imidazol-5-yl]-1,11-dihydroisochromeno[4′,3′:6,7]naphtho[1,2-d]imidazol-2-yl}-4-(methoxymethyl)pyrrolidin-1-yl]-2-oxo-phenylethyl}carbamate]	0.011	< 1	0.004	< 1	0.023	0.009	< 1	0.095	0.017	< 1	0.016	< 1			< 1	0.023	
COC[C@H]1C[C@@H](c2nc3c([nH]2)-c2cc4c(cc2CC3)-c2ccc(-c3cnc([C@@H]5CCCN5C(=O)[C@@H](NC(=O)OC)C(C)C)[nH]3)cc2CO4)N(C(=O)[C@H](NC(=O)OC)c2ccccc2)C1 [Example MR, methyl{(1R)-2-[(2S,4S)-2-(9-{2-[(2S)-1-{(2S)-2-[(methoxycarbonyl)amino]-3-methylbutanoyl}pyrrolidin-2-yl)-1H-imidazol-5-yl]-1,11-dihydroisochromeno[4′,3′:6,7]-4,5-dihydro-naphtho[1,2-d]imidazol-2-yl}-(methoxymethyl)pyrrolidin-1-yl]-2-oxo-1-phenylethyl}carbamate]	0.041	< 1	0.017	< 1	0.053	0.039	< 1	0.176	0.079	< 1	0.078	< 1		0.045	< 1	0.128	
COC[C@H]1C[C@@H](c2nc3ccc4cc5c(cc4c3[nH]2)OCc2cc(-c3ccc4nc([C@@H]6CCCN6C(=O)[C@@H](NC(=O)OC)C(C)C)[nH]c4c3)ccc2-5)N(C(=O)[C@H](NC(=O)OC)c2ccccc2)C1 [Example MS]	0.008	< 1	0.005	> 5	9.56		> 5	15.6				< 1	0.02	0.014			
COC[C@H]1C[C@@H](c2ncc(-c3ccc4c(c3)COc3cc5c(ccc6nc([C@@H]7C[C@H]8C[C@H]8N7C(=O)[C@H](NC(=O)OC)c7ccccc7)[nH]c65)cc3-4)[nH]2)N(C(=O)[C@@H](NC(=O)OC)C(C)C)C1 [Example MV]	0.014	< 1	0.004	< 1	0.041	0.034	< 1		0.047	< 1	0.011	< 1	0.011		< 1	0.012	
COC(=O)N[C@H](C(=O)N1CCC[C@H]1c1ncc(-c2ccc3c(c2)COc2cc4c(ccc5nc([C@@H]6C[C@H](C)CN6C(=O)[C@H](NC(=O)OC)c6ccccc6)[nH]c54)cc2-3)[nH]1)C(C)C [Example MY, Methyl {2-[2-{9-[2-(1-{2-[(methoxycarbonyl)amino]-3-methylbutanoyl}pyrrolidin-2-yl)-1H-imidazol-5-yl]-1,11-dihydroisochromeno[4′,3′:6,7]naphtho[1,2-d]imidazol-2-yl}-4-(methyl)pyrrolidin-1-yl]-2-oxo-1-phenylethyl}carbamate]																	0.015
COC[C@H]1C[C@@H](c2nc3ccc4cc5c(cc4c3[nH]2)OCc2cc(-c3cnc([C@@H]4C[C@H](C)CN4C(=O)[C@H](NC(=O)OC)c4ccccc4)[nH]3)ccc2-5)N(C(=O)[C@@H](NC(=O)OC)C(C)C)C1 [Example PF, methyl {1-[2-{9-[2-(1-{[(methoxycarbonyl)amino](phenyl)acetyl}-4-methylpyrrolidin-2-yl)-1H-imidazol-5-yl]-1,11-dihydroisochromeno[4′,3′:6,7]naphtho[1,2-d]imidazol-2-yl}-4-(methoxymethyl)pyrrolidin-1-yl]-3-methyl-1-oxobutan-2-yl}carbamate]																	0.044
Methyl {(2S)-1-[(2S,5S)-2-(5-{2-[(2S,4S)-1-{(2S)-2-[(methoxycarbonyl)amino]-3-methylbutanoyl}-4-methylpyrrolidin-2-yl]-1,11-dihydroisochromeno[4′,3′:6,7]naphtho[1,2-d]imidazol-9-yl}-1H-imidazol-2-yl)-4-methylpyrrolidin-1-yl]-3-methyl-1-oxobutan-2-yl}carbamate [Example ND]	0.024	< 1	0.014	< 1	1.32	0.27	< 1	2.34	0.314	< 1	0.035	< 1	0.044	0.031	< 1	0.057	
dimethyl (2S,2′S)-1,1′-((2 S,2′S)-2,2′l-pyrrolidin-2-yl)-5H-naphtho[c,g]chromeno[8,9-d]imidazol-9-yl)-1H-imidazol-2-yl)pyrrolidin-1-yl))bis(3-methyl-1-oxobutane-2,1-diyl)dicarbamate [Example MC]	0.017	< 1	0.004	< 1	0.375	0.162	1 to 4.99	3.52	1.16	< 1	0.004	< 1	0.028	0.008	< 1	0.99	

From patent US9221833B2, “Antiviral compounds” (GILEAD PHARMASSET LLC, priority 2011, dated 2015)
